Assay results as given in ChEMBL document CHEMBL5385943, “Synthesis, biological evaluation and molecular docking study of pyrimidine linked thiazolidinedione derivatives as potential antimicrobial and antitubercular agents” (Bioorg Med Chem Lett, 2024).
Converted amounts (≈) assume the structure as drawn. The source made the active and inactive calls. No cut-off for these calls is given here.

What was measured:
[1] = tested on: Staphylococcus aureus; experiment: Antimicrobial activity against Staphylococcus aureus assessed as reduction in microbial growth; type: functional
[2] = tested on: Staphylococcus aureus; experiment: Antimicrobial activity against methicillin-resistant Staphylococcus aureus assessed as reduction in microbial growth; type: functional
[3] = tested on: Bacillus subtilis; experiment: Antimicrobial activity against Bacillus subtilis assessed as reduction in microbial growth; type: functional
[4] = tested on: Escherichia coli; experiment: Antimicrobial activity against Escherichia coli assessed as reduction in microbial growth; type: functional
[5] = tested on: Candida albicans; experiment: Antimicrobial activity against Candida albicans assessed as reduction in microbial growth; type: functional
[6] = tested on: Mycobacterium tuberculosis; experiment: Antitubercular activity against Mycobacterium tuberculosis H37Rv by agar dilution method; type: functional
[7] = Cytotoxicity against human WI-38 cells assessed as reduction in cell growth; type: toxicity, cell-based
[8] = Selectivity index, ratio of CC50 for human WI-38 cells to MIC for Mycobacterium tuberculosis H37Rv; type: toxicity; details: read-out: Selectivity Index
[9] = tested on: Staphylococcus aureus; experiment: Antibacterial activity against methicillin resistant Staphylococcus aureus at 1 times MIC measured after 120 to 150 mins by time kill assay; type: functional, organism-based; details: time 120-150 min
[10] = tested on: Escherichia coli; experiment: Antibacterial activity against Escherichia coli at 1 times MIC measured after 120 to 150 mins by time kill assay; type: functional, organism-based; details: time 120-150 min
[11] = tested on: Staphylococcus aureus; experiment: Antibacterial activity against methicillin resistant Staphylococcus aureus at 1 times MIC measured after 180 mins by time kill assay; type: functional, organism-based
[12] = tested on: Escherichia coli; experiment: Antibacterial activity against Escherichia coli at 1 times MIC measured after 150 mins by time kill assay; type: functional, organism-based
[13] = tested on: Staphylococcus aureus; experiment: Antibacterial activity against methicillin resistant Staphylococcus aureus at 1 times MIC measured after 150 mins by time kill assay; type: functional, organism-based

In the case of Cc1ccc(C(=O)N2C(=O)S/C(=C\c3cnc(C(F)(F)F)nc3)C2=O)cc1, the MIC [1] is reported as 30.6 µM, the MIC [2] is reported as 71.8 µM and the MIC [3] is reported as 24.9 µM. It also gave an MIC [4] of 35.8 µM, an MIC [5] of 41.3 µM and an MIC [6] of 8.49 µM (≈ 3.34 µg/mL). For the same molecule, the CC50 [7] was over 50 µM and the selectivity ratio [8] was 5.89.
With NNC(=O)c1ccncc1 [ISONIAZID] the MIC [6] was 0.35 µM (≈ 0.048 µg/mL), the CC50 [7] was over 50 µM and the selectivity ratio [8] was 143.
Molecule O=C1S/C(=C\c2cnc(C(F)(F)F)nc2)C(=O)N1C(=O)c1ccccc1 has an MIC [1] of 27.1 µM, an MIC [2] of 62.5 µM and an MIC [3] of 19.5 µM. For the same molecule, the MIC [4] was 28.3 µM, the MIC [5] was 30.6 µM and the MIC [6] was 5.62 µM (≈ 2.13 µg/mL). It also gave a CC50 [7] of over 50 µM and a selectivity ratio [8] of 8.89.
Work on CN[C@@H]1[C@H](O[C@H]2[C@H](O[C@H]3[C@H](O)[C@@H](O)[C@H](N=C(N)N)[C@@H](O)[C@@H]3N=C(N)N)O[C@@H](C)[C@]2(O)C=O)O[C@@H](CO)[C@H](O)[C@H]1O [STREPTOMYCIN] yielded an MIC [1] of 11.9 µM, an MIC [3] of 11.5 µM and an MIC [4] of 14.3 µM.
O=C1S/C(=C\c2cnc(C(F)(F)F)nc2)C(=O)N1C(=O)c1cc(F)cc(F)c1 gave an MIC [1] of 10.3 µM, an MIC [2] of 21.9 µM and an MIC [3] of 9.7 µM. The MIC [4] was 11.2 µM, the MIC [5] was 11.8 µM and the MIC [6] was 0.71 µM (≈ 0.295 µg/mL). For the same molecule, the CC50 [7] was over 50 µM and the selectivity ratio [8] was 70.4.
Molecule O=C1S/C(=C\c2cnc(C(F)(F)F)nc2)C(=O)N1C(=O)c1ccc([N+](=O)[O-])cc1 has an MIC [1] of 10.9 µM, an MIC [2] of 24.1 µM and an MIC [3] of 10.2 µM. The MIC [4] was 11.7 µM, the MIC [5] was 12.9 µM and the MIC [6] was 1.06 µM (≈ 0.45 µg/mL). It also gave a CC50 [7] of over 50 µM and a selectivity ratio [8] of 47.2.
Work on O=C1S/C(=C\c2cnc(C(F)(F)F)nc2)C(=O)N1C(=O)c1ccc(F)cc1 yielded an MIC [1] of 13.7 µM, an MIC [2] of 31.7 µM and an MIC [3] of 12.8 µM. The MIC [4] was 15.1 µM, the MIC [5] was 16.8 µM and the MIC [6] was 3.25 µM (≈ 1.29 µg/mL). For the same molecule, the CC50 [7] was over 50 µM and the selectivity ratio [8] was 15.4.
With OC(Cn1cncn1)(Cn1cncn1)c1ccc(F)cc1F [FLUCONAZOLE] the MIC [5] was 14.9 µM.
With O=C1S/C(=C\c2cnc(C(F)(F)F)nc2)C(=O)N1C(=O)c1ccc(Br)cc1 the MIC [1] was 20.7 µM, the MIC [2] was 48.2 µM and the MIC [3] was 17.3 µM. For the same molecule, the MIC [4] was 22.6 µM, the MIC [5] was 4.7 µM and the MIC [6] was 6.12 µM (≈ 2.8 µg/mL). For the same molecule, the CC50 [7] was over 50 µM and the selectivity ratio [8] was 8.17.
CC(=O)NC[C@H]1CN(c2ccc(N3CCOCC3)c(F)c2)C(=O)O1 [LINEZOLID] gave an MIC [2] of 23.1 µM.
In the case of O=C1S/C(=C\c2cnc(C(F)(F)F)nc2)C(=O)N1C(=O)c1ccc(Cl)cc1, the MIC [1] is reported as 16.8 µM, the MIC [2] is reported as 36.4 µM and the MIC [3] is reported as 14.4 µM. For the same molecule, the MIC [4] was 17.8 µM, the MIC [5] was 19.4 µM and the MIC [6] was 4.83 µM (≈ 2 µg/mL). It also gave a CC50 [7] of over 50 µM and a selectivity ratio [8] of 10.3.
For O=C1S/C(=C\c2cnc(C(F)(F)F)nc2)C(=O)N1C(=O)c1ccc(C(F)(F)F)cc1, the MIC [1] was 6.4 µM, the MIC [2] was 10.8 µM and the MIC [3] was 6.1 µM. It also gave an MIC [4] of 8.4 µM, an MIC [5] of 8.1 µM and an MIC [6] of 0.22 µM (≈ 0.0984 µg/mL). For the same molecule, the CC50 [7] was over 50 µM, the selectivity ratio [8] was 227 and the Activity [9] was “Active”. For the same molecule, the Activity [10] was “Active”.
With O=C1S/C(=C\c2cnc(C(F)(F)F)nc2)C(=O)N1C(=O)c1cc(F)c(F)c(F)c1 the MIC [1] was 8.6 µM, the MIC [2] was 15.4 µM and the MIC [3] was 8.1 µM. It also gave an MIC [4] of 9.7 µM, an MIC [5] of 9.5 µM and an MIC [6] of 0.32 µM (≈ 0.139 µg/mL). The CC50 [7] was over 50 µM, the selectivity ratio [8] was 156 and the Activity [11] was “Active”. For the same molecule, the Activity [12] was “Active”.
O=C1S/C(=C\c2cnc(C(F)(F)F)nc2)C(=O)N1C(=O)c1ccc(O)cc1 gave an MIC [1] of 37.4 µM, an MIC [2] of 79.2 µM and an MIC [3] of 28.3 µM. It also gave an MIC [4] of 40.9 µM, an MIC [5] of 53.7 µM and an MIC [6] of 10.9 µM (≈ 4.31 µg/mL). It also gave a CC50 [7] of over 50 µM and a selectivity ratio [8] of 4.58.
With GENTAMICIN the Activity [13] was “inactive”.
